Where two headings read alike, the source gives them in different places.
Legend:
GSK3β = GSK3β (Homo sapiens, UniProt P49841); experiment: GSK3β kinase assay (Caliper LabChip3000 mobility shift, fluoresceinated peptide substrate); type: biochemical
pTau = pTau assay (no method described); type: cell-based
GSK3α = GSK3α (Homo sapiens, UniProt P49840); experiment: GSK3α kinase assay (Caliper LabChip3000 mobility shift, fluoresceinated peptide substrate)
[1] = 250 pM enzyme, 20 uM ATP, 1.5 uM peptide, 20 hours room temperature, first value of cell GSK3β/GSK3α, read-out: GSK3β (nM), IC50

Sequence of GSK3α (P49840 whole entry, species assumed): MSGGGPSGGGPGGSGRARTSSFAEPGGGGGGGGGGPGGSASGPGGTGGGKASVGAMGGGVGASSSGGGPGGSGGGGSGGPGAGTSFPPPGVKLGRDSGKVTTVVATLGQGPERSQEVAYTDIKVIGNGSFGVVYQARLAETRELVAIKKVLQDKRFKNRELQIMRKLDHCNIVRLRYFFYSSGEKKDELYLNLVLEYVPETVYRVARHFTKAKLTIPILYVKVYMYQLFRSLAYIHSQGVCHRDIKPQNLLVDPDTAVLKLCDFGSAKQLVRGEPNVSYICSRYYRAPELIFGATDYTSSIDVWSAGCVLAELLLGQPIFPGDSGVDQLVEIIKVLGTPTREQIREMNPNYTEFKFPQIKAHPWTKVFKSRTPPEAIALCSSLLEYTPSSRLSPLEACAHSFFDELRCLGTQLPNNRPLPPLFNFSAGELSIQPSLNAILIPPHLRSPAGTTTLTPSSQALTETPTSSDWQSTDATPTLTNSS
Sequence of GSK3β (P49841 whole entry, species assumed): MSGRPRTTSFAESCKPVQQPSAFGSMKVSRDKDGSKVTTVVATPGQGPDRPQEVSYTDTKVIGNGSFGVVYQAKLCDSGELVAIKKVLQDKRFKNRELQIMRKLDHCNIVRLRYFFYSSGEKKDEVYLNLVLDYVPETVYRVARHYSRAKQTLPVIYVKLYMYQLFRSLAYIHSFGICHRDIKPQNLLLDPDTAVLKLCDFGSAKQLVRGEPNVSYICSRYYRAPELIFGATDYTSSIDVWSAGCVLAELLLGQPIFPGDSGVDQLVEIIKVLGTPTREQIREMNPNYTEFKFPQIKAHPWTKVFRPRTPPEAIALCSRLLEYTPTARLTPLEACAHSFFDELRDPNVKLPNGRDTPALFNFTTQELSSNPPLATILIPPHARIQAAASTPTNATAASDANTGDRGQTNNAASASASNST

Structure (SMILES) | IC50 (GSK3β; [1]) [nM] | IC50 (pTau) [nM] | IC50 (GSK3α) [nM] | IC50 (GSK3β) [nM]
O=C(Nc1cnccc1OCC(F)(F)F)c1ccnc(NCC(F)(F)F)n1 [Example 141, N-(4-(2,2,2-Trifluoroethoxy)pyridin-3-yl)-2-((2,2,2-trifluoroethyl)amino)pyrimidine-4-carboxamide] | 7.8 | 300 | 8 | –
CN1CCC(Nc2nccc(C(=O)Nc3cnccc3OCC(F)(F)F)n2)CC1 [Example 142, 2-((1-Methylpiperidin-4-yl)amino)-N-(4-(2,2,2-trifluoroethoxy)pyridin-3-yl)pyrimidine-4-carboxamide] | – | 1000 | 12 | 14
CC(Nc1nccc(C(=O)Nc2cnccc2OCC(F)(F)F)n1)C12CC3CC(CC(C3)C1)C2 (stereo not drawn) [Example 143, 2-((1-(Adamantan-1-yl)ethyl)amino)-N-(4-(2,2,2-trifluoroethoxy)pyridin-3-yl)pyrimidine-4-carboxamide] | 33 | 4900 | 73 | –
O=C(Nc1cnccc1OCC(F)(F)F)c1ccnc(NCc2cc(C(F)(F)F)cc(C(F)(F)F)c2)n1 [Example 144, 2-((3,5-Bis(trifluoromethyl)benzyl)amino)-N-(4-(2,2,2-trifluoroethoxy)pyridin-3-yl)pyrimidine-4-carboxamide] | 210 | 10000 | 200 | –
CN1C(C)(C)CC(Nc2nccc(C(=O)Nc3cnccc3OCC(F)(F)F)n2)CC1(C)C [Example 145, 2-((1,2,2,6,6-Pentamethylpiperidin-4-yl)amino)-N-(4-(2,2,2-trifluoroethoxy)pyridin-3-yl)pyrimidine-4-carboxamide] | 250 | 10000 | 460 | –
O=C(Nc1cnccc1-c1ccccc1)c1ccnc(NCC2CC2)n1 [Example 147, 2-((Cyclopropylmethyl)amino)-N-(4-phenylpyridin-3-yl)pyrimidine-4-carboxamide] | 0.14 | 20 | 0.14 | –
O=C(Nc1cnccc1-c1ccc(F)cc1)c1ccnc(NC2CCCC2)n1 [Example 148, 2-(Cyclopentylamino)-N-(4-(4-fluorophenyl)pyridin-3-yl)pyrimidine-4-carboxamide] | 0.35 | 51 | 0.3 | –
O=C(Nc1cnccc1-c1ccc(F)cc1F)c1ccnc(Nc2ccc3ccccc3c2)n1 [Example 149, N-(4-(2,4-Difluorophenyl)pyridin-3-yl)-2-(naphthalen-2-ylamino)pyrimidine-4-carboxamide] | 0.65 | 110 | 0.36 | –
O=C(Nc1cnccc1-c1ccc(F)cc1)c1ccnc(NC2CCCCC2)n1 [Example 150, 2-(Cyclohexylamino)-N-(4-(4-fluorophenyl)pyridin-3-yl)pyrimidine-4-carboxamide] | 0.66 | 120 | 0.57 | –
O=C(Nc1cnccc1-c1ccc(F)cc1F)c1ccnc(Nc2ccccc2)n1 [Example 151, N-(4-(2,4-Difluorophenyl)pyridin-3-yl)-2-(phenylamino)pyrimidine-4-carboxamide] | 0.67 | 44 | 0.32 | –
O=C(Nc1cnccc1-c1ccc(F)cc1)c1ccnc(NC2CC2)n1 [Example 153, 2-(Cyclopropylamino)-N-(4-(4-fluorophenyl)pyridin-3-yl)pyrimidine-4-carboxamide] | 0.82 | 55 | 0.65 | –
O=C(Nc1cnccc1-c1ccccc1F)c1ccnc(Nc2ccc3ccccc3c2)n1 [Example 154, N-(4-(2-Fluorophenyl)pyridin-3-yl)-2-(naphthalen-2-ylamino)pyrimidine-4-carboxamide] | 1.4 | 100 | 0.7 | –
O=C(Nc1cnccc1-c1ccc(F)cc1F)c1ccnc(Nc2ccc(F)cc2F)n1 [Example 155] | 1.5 | 10000 | 0.97 | –
O=C(Nc1cnccc1-c1ccccc1)c1ccnc(NC2CCCCC2)n1 [Example 156, 2-(Cyclohexylamino)-N-(4-phenylpyridin-3-yl)pyrimidine-4-carboxamide] | – | 350 | 1.3 | 2.1
